“Also recorded” adds a separate entry of the source. Where two headings read alike, the source gives them in different places.
Columns and labels:
LnCap cells [1] = format: cell-based, human
[2] = molecular target: T1, rhARLBD (ligand binding domain of the rhesus monkey AR) (Macaca mulatta, UniProt Q6QT55); experiment: Hydroxyapatite (HAP)-based 3H-R1881 displacement binding assay using rhARLBD expressed in yeast
T1 construct: includes amino acids 601 to 895 of the rhesus monkey AR; made in house; host or cells: yeast (pESP-1 vector, Stratagene)
T1 sequence (Q6QT55 601-895): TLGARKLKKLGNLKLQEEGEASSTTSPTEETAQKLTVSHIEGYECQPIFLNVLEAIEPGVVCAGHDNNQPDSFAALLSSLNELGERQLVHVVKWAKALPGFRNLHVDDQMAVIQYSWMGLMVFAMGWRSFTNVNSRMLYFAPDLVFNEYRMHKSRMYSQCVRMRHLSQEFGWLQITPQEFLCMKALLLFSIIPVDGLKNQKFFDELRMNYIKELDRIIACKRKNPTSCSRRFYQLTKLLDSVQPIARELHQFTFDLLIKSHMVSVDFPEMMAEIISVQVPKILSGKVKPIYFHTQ
Source text: The screening assays were set up to use the ARLBD from Macaca mulatta (rhesus monkey; herein after rhARLBD) expressed in yeast. […] A medium to high throughput AR binding assay for screening analyte libraries and characterizing various analytes therein was also developed.
Cloning the full length rhesus monkey AR from rhesus monkey prostrate mRNA and subsequent subcloning of the rhARLBD was done as described in WO02090529 to Towler and Chen. Briefly, the rhARLBD was PCR amplified from the full rhesus monkey AR and inserted in frame with GST at a SmaI site of the pESP-1 clone. This placed the rhARLBD downstream of the GST-flag tag.
Cell lysates comprising the rhARLBD were prepared as follows. GST-Flag-rhARLBD (Mr=60 kDa) fusion protein was expressed in yeast using the pESP-1 vector (Stratagene, La Jolla, Calif.) according to the manufacturer's protocol. After a sufficient time to express the GST-Flag-rhARLBD the yeast were centrifuged and the yeast pellet resuspended in TGEM/DTT/PI buffer (10 mM Tris-HCl, pH 7.4, 1 mM EDTA, 10% glycerol, 10 mM molybdate, 2 mM dithiothreitol (DTT), 50 μL yeast protease inhibitor cocktail (PI, Sigma Chemicals, St. Louis, Mo.) per gram of yeast and 1/10×^th volume of PI complete (PI: Boehringer-Mannheim, Roche Applied Science, Indianapolis, Ind.) per gram of yeast. The yeast cells were lysed by vortexing in the presence of glass beads in cold TGEM/DTT/PI buffer. The cell debris was centrifuged at 10,000×g for 20 minutes at 4° C. The clear supernatant fraction containing the rhARLBD was the lysate used for the assays. Usually, about 25 to 50 μL of lysate as determined by titration was used per assay. In some cases, the rhARLBD fusion protein was purified from the lysate using a batch purification method using anti-Flag M2 affinity gel (Sigma) in TEGM/DTT buffer. The rhARLBD fusion protein was eluted using TEGM/DTT buffer containing 100 μg/mL Flag peptide.
Hydroxyapatite (HAP)-based binding assays were performed as follows: For the hydroxyapatite assays, the amount of lysate used was based on titration using ^3H-ligand at concentration about the Kd value of the ligand to the corresponding receptor. In general, the assay was carried at in 150 μL of TEGM buffer. […] The samples were vortexed and incubated on ice for about 10 minutes. […] The washing process transfers the HAP pellets containing ligand-bound-expressed receptor to [sequence]-96 GF/B (Packard Instruments Co.) which has been prewetted in 0.5% polyethylimine. The HAP pellets on the filter plates were incubated with 50 μL of MICROSCINT (Packard Instruments Co.) for 2 hours before counted on the TOPCOUNT (Packard Instruments Co.). […] The binding reactions were incubated for about 18 hours at 4° C. and process as above).

LnCap cells [3] = format: cell-based, human; remark: listed apart in the source
LnCap cells [4] = details: LnCap AR with residue 877 threonine to alanine mutation; cited from earlier work
[5] = molecular target: T2, LnCap AR (residue 877 threonine to alanine) (Homo sapiens, UniProt P10275, T878A); details: LnCap AR expression vector; cited from earlier work
T2 sequence (P10275 1-920 T878A): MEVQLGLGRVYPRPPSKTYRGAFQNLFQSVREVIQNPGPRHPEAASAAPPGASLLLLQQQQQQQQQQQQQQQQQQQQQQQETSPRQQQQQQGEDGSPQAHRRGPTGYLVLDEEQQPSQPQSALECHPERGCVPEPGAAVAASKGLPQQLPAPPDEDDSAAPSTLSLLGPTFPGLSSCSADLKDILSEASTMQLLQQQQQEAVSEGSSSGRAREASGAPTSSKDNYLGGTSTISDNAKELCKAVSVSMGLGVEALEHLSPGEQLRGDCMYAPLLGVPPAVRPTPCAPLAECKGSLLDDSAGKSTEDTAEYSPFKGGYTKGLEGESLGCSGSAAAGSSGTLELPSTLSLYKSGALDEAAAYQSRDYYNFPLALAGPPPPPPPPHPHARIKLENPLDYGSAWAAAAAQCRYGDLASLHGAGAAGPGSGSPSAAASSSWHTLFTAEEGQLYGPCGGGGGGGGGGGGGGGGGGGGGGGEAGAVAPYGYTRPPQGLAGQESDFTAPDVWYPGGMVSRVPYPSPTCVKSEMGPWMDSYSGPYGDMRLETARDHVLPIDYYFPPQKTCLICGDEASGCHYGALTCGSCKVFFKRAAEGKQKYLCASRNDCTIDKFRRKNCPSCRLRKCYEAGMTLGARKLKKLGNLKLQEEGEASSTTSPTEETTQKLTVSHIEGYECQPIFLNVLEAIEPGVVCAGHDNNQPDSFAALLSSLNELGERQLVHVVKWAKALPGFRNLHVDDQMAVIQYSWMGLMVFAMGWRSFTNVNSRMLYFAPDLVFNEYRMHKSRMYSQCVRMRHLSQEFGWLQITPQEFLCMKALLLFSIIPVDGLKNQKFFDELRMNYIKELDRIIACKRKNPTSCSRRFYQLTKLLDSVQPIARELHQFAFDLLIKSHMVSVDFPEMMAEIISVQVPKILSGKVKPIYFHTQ

SMILES	antagonist activity on PSA production in LnCap cells (antagonist mode) (LnCap cells [1])	agonist activity, PSA production in LnCap cells (agonist mode) (LnCap cells [3])	stimulation of LnCap cell growth through the AR (LnCap cells [4])	further results
C[C@]12CCC(=O)C=C1CC[C@@H]1[C@@H]2CC[C@]2(C)C(=O)CC[C@@H]12 [4-androstene-3,17β-dione]	antagonist activity; also recorded: antagonized the agonist activity of DHT and R1881	had agonist activity		binding affinity to rhARLBD compared to full-length human AR ([2]; comparison of IC50s, rhARLBD (yeast lysate) vs full-length human AR (mdaAR), FIGS. 2A-2D, 3A-3D): reduced binding affinity
C[C@]12CC[C@H]3[C@@H](CCC4=C[C@@H](O)CC[C@@]43C)[C@@H]1CC[C@@H]2O [4-androstene-3β,17β-diol]	antagonist activity; also recorded: antagonized the agonist activity of DHT and R1881	had agonist activity		
CC(O)(CS(=O)(=O)c1ccc(F)cc1)C(=O)Nc1ccc(C#N)c(C(F)(F)F)c1 (stereo not shown) [CASODEX]	antagonist activity	full antagonist	retains its antagonism	
CC(=O)O[C@]1(C(C)=O)CC[C@H]2[C@@H]3C=C(Cl)C4=CC(=O)[C@@H]5C[C@@H]5[C@]4(C)[C@H]3CC[C@@]21C [CPA, cyproterone acetate]	antagonist activity; also recorded: antagonized the agonist activity of DHT and R1881	had agonist activity	able to stimulate cell growth	
C[C@]12CC[C@H](O)CC1=CC[C@@H]1[C@@H]2CC[C@]2(C)C(=O)CC[C@@H]12 [DHEA, dehydroepiandrosterone]	antagonist activity; also recorded: antagonized the agonist activity of DHT and R1881	had agonist activity		
C[C@]12CCC(=O)C[C@@H]1CC[C@@H]1[C@@H]2CC[C@]2(C)[C@@H](O)CC[C@@H]12 [DHT, 5-α-dihydrotestosterone]	full agonist activity	full agonist activity; also recorded: had agonist activity		
C[C@]1(O)CC[C@H]2[C@@H]3CCC4=CC(=O)CCC4=C3C=C[C@@]21C [R1881, 17 β-hydroxy-17-methyl-estra-4,9,11-trien-3-one]	does not antagonize	slightly less potent than DHT; also recorded: had agonist activity		IC50 [2]: ~1 nM; binding affinity to rhARLBD compared to full-length human AR [2]: same binding affinity; also recorded: no significant shift
CC(C)(O)C(=O)Nc1ccc([N+](=O)[O-])c(C(F)(F)F)c1 [hydroxyflutamide]			able to stimulate cell growth	effect on the androgen promoter in receptor/reporter cotransfection [5]: agonist effect
CC(=O)[C@H]1CC[C@H]2[C@@H]3CCC4=CC(=O)CC[C@]4(C)[C@H]3CC[C@]12C [progesterone]			able to stimulate cell growth	
